Patent publication US9567347B2, “Use of small molecule inhibitors targeting the interaction between RAC GTPase and p67(phox)” (CHILDREN'S HOSPITAL MEDICAL CENTER, priority 2012, dated 2017)
Where two headings read alike, the source gives them in different places.

Legend:
dHL-60 cells = assay: stability in culture over time, DCFDA ROS assay; format: cell-based, human; conditions: 20 μM, 6 hr treatment window
Method: (A) Apoptosis analysis by FACS of HL-60 cells treated with compound or vehicle control for 2 hours prior to 7-AAD and Annexin V staining. (B) HL-60 cells from A were harvested and lysates were immunoblotted for levels of pPAK, and actin was used as a control for loading. (C) F-actin reorganization in freshly isolated fMLP-stimulated primary murine neutrophils was analyzed. […] Cells were exposed to a 10 μM dose of Phox-I1, Phox-I2, and Analog 13, and 200 nM nocodazole. (D) The effect of Phox-I on NOX4 mediated ROS production was tested in primary murine neutrophils transfected with a NOX4 expressing plasmid. 10 μM Phox-I1 was applied to the cells for 30 min prior to ROS assay by luminol chemiluminescence in the presence of HRP. The fMLP-stimulated ROS activity in the presence or absence of 10 uM Phox-I1 was measured in parallel. (E) The antioxidant abilities of these lead compounds were tested by prestimulating dHL-60 cells with fMLP for 30 minutes prior to treatment with Phox-I1 or Phox-I2. Levels of superoxide were analyzed by DCFDA assay and FACS. NAC, apocyanin, DPI, and NSC23766 treated cells served as controls. […]

[1] = tested on: primary human neutrophils; assay: luminol chemiluminescence assay of fMLP-induced ROS production; format: cell-based
Method: HL-60 cells were propagated in RPMI 1640 medium containing 10% heat inactivated fetal bovine serum, 2 mM L-glutamine, 100 U/mL penicillin/streptomycin at 37° C. in air containing 5% CO2. For differentiation, HL-60 cells were cultured in 1.3% dimethyl sulfoxide (DMSO) as previously described (Servant, G., et al. (1999) Mol Biol Cell 10, 1163-1178, hereby incorporated by reference in its entirety). Primary murine neutrophils were isolated from C57Bl/6 mouse bone marrow according to a published protocol (Filippi et al., (2004) Nat Immunol 5, 744-751, hereby incorporated by reference in its entirety) using a discontinuous Percoll (Pharmacia) gradient and were utilized immediately in experiments. Human neutrophils were obtained from fresh blood (IRB #2010-1855, Cincinnati Children's Hospital medical Center) following a well established protocol using density gradient separation from whole blood (Oh et al. (2008) J Vis Exp., 17, pii: 745, hereby incorporated by reference in its entirety). […]
Chemiluminescence was measured using GloMax®-96 Microplate Luminometer (Promega) (Tarpey et al., (2004) Am J Physiol Regul Integr Comp Physiol 286: R431-R444, hereby incorporated by reference in its entirety). […]

[2] = tested on: fMLP-activated primary murine neutrophils; assay: Nitroblue tetrazolium (NBT) assay; format: cell-based, mouse; conditions: 10 μM, FIG. 3C
Method: Primary neutrophils from mouse bone marrow were subjected to fMLP stimulation in the presence or absence of various chemicals for 5 min. Cells were stained for NBT activity as previously described in the incorporated materials of Filippi et al. (2004) to reveal relative ROS production.
To complement the DCFDA based FACS analysis and the luminol chemiluminescence method, nitroblue tetrazolium (NBT) assays were performed in fMLP-activated primary murine neutrophils (FIG. 3C).
The NBT assay was performed in primary murine neutrophils to measure ROS neutrophil production. […] Each compound was used at 10 μM.

Pak = assay: immunoblot of phosphorylated Pak; format: cell-based, human; conditions: 18 hr treatment
Method: Whole-cell lysates were prepared by cell extraction using lysis buffer containing 20 mM Tris-HCl (pH 7.6), 100 mM NaCl, 10 mM MgCl2, 1% Triton X-100, 0.2% sodium deoxycholate, 1 mM phenylmethylsulfonyl fluoride, 10 μg/mL of leupeptin, 1 μg/mL of aprotinin, and 1 mM dithiothreitol for 30 min. Equal amounts of protein, as determined by Bradford assay, were resolved by SDS-PAGE. Specific proteins were detected by standard 9 immunoblotting procedures using the following primary antibodies: (Cell Signaling, 1:500 dilution) phospho-PAK1 (Ser144)/PAK2 (Ser141), (Sigma-Aldrich 1:500) β-Actin.
To analyze the biochemical specificity of these lead inhibitors on the effector pathways of active Rac1, undifferentiated HL-60 cells were treated with Phox-I1, Phox-I2, or NSC23766 for 18 hr. Immunoblot of the cell lysates was performed to probe the activity of Pak, a Rac effector other than p67^phox (FIG. 4B).

## O=[N+]([O-])c1cccc(C2Nc3ccc([N+](=O)[O-])cc3C3C=CCC32)c1 (centres unmarked) [Phox-I2]
dHL-60 cells
  efficacy of ROS inhibition over time in culture: retained some efficacies
[1]
  IC50: ~6 µM
[2]
  superoxide production (NBT): heightened
Pak
  phosphorylated Pak levels: not

## COc1ccc2c(c1)C1C=C(c3ccccc3)NN1C(c1cccc([N+](=O)[O-])c1)O2 (centres unmarked) [Phox-I1]
dHL-60 cells
  efficacy of ROS inhibition over time in culture: no significant change in efficacy
[1]; Neutrophil
  IC50: ~8 µM
[2]
  superoxide production (NBT): significant blockade of superoxide production
Pak
  phosphorylated Pak levels: not
